The results in this text go back to patent publication US20250122217A1, “ANHYDROUS CRYSTALLINE FORMS OF 2-((4S)-6-(4-CHLOROPHENYL)-1-METHYL-4H-BENZO[C]ISOXAZOLO[4,5-E]AZEPIN-4-YL)ACETAMIDE” (CONSTELLATION PHARMACEUTICALS. INC., priority 2022, published 2025).

Data set [1] in a line: Dynamic vapor sorption (DVS). The format is physicochemical.
The nature of data set [2]: Competitive slurry experiments of crystalline forms, XRD readout. The format is physicochemical. Conditions: for water activities at which the form is thermodynamically stable: conclusion from the competitive slurries of Table 3; for XRD result of competitive slurry: about 5-7 days. On the procedure:
The following competitive slurry experiments were performed using inventive anhydrous Form B and monohydrate Form A disclosed in U.S. Pat. No. 9,969,747.
Aqueous mixtures were created and tested in duplicate for water activity at ambient temperature. Amorphous Pelabresib was used to create a saturated solution in the respective solvent. The supernatant was added to solids of monohydrate Form A and anhydrous Form B and allowed to stir at the respective temperature for about 5-7 days. In all samples except for the butanol:water mixture, a small quantity of Form C was also added to the competitive slurry. Form C can be prepared by slurring amorphous pelabresib in water:ethanol (90:10) for about 5 days The results of the competitive slurries are shown below in Table 3.

A further data set is described as follows: in vivo. The note with it: male, beagle, dog, po, 5 mg/kg. Further details: species or system beagle dogs. The protocol:
Single dose PK parameters in plasma were determined following oral gavage administration of micronized anhydrous Form B at 5 mg/kg to male beagle dogs (n=6/Group) in 0.5% (w/v) aqueous Methocel (4000 cps). The dose volume of PO groups was 2 mL/kg. For intravenous (0.5 mg/kg) and oral gavage (5 mg/kg), plasma samples were collected at the following time points: 0, 0.25, 0.5, 1, 2, 4, 6, 8, 12, 24 h post dose and analyzed. […] (5 mg/kg, 2.5 mg/mL, suspension).

Where only a bound is given, the exact number is not on record here.

By AUC(0-t) is commonly meant the area under the concentration-time curve up to a stated or last time point. Low readings indicate less exposure, high ones more exposure. The term Cmax denotes the peak of the concentration-time curve. Usually Tmax stands for the time from dosing to the highest level. For the compound `Cc1noc2c1-c1ccccc1C(c1ccc(Cl)cc1)=N[C@H]2CC(N)=O` (single isomer, unassigned) [Form B], the “hygroscopicity by DVS” value in data set [1] (DVS profile, FIG. 3) was “non-hygroscopic”. Further, the “weight gain (DVS)” value in data set [1] (at 95% RH) was “about 0.5%”. Moreover, the “water activities at which the form is thermodynamically stable” value in data set [2] is given as at most 72%. Moreover, in the data set “in vivo”, the AUC(0-t) is 12100 ± 1450 ng·h/mL, the Cmax is 1750 ± 225 ng/mL and the time of peak concentration (Tmax) was 1.17 ± 0.41 h.
For the compound `Cc1noc2c1-c1ccccc1C(c1ccc(Cl)cc1)=N[C@H]2CC(N)=O` [Pelabresib, 2-((4S)-6-(4-chlorophenyl)-1-methyl-4H-benzo[c]isoxazolo[4,5-e]azepin-4-yl)acetamide], the “XRD result of competitive slurry” value in data set [2] (Form A + Form B (no Form C), 2-butanol:water (95:5), water activity 0.72, 40° C.) was “Form B”; in data set [2] (Form A + Form B (no Form C), 2-butanol:water (95:5), water activity 0.72, RT), “Form B”; in data set [2] (Form A + Form B + small quantity of Form C, EtOH:water (90:10), water activity 0.54, 40° C.), “Form B”; in data set [2] (Form A + Form B + small quantity of Form C, EtOH:water (90:10), water activity 0.54, RT), “Form B”; in data set [2] (Form A + Form B + small quantity of Form C, IPA:water (98:2), water activity 0.27, 40° C.), “Form B + small peak”; in data set [2] (Form A + Form B + small quantity of Form C, IPA:water (98:2), water activity 0.27, RT), “Form B”. The “XRD result of competitive slurry” value in data set [2] (Form A + Form B + small quantity of Form C, THF:water (10:90), water activity 0.97, 40° C.) is given as “Form A”; in data set [2] (Form A + Form B + small quantity of Form C, THF:water (10:90), water activity 0.97, RT), “Form C”.
As for `Cc1noc2c1-c1ccccc1C(c1ccc(Cl)cc1)=N[C@H]2CC(N)=O` (single isomer, unassigned) [Form A, reference compound], the “water activities at which the form is thermodynamically stable” value in data set [2] is reported as at least 97%.
